System: Human immunodeficiency virus 1
Assay: Antiviral activity against HIV1 JRFL infected in human HeLa cells expressing CD4 and CCR5 assessed as inhibition of single-cycle viral replication by luciferase reporter gene assay
Assay type: functional, organism-based
Details: Human immunodeficiency virus 1, JRFL

Going from `O=C(Nc1nncs1)c1ccc(F)c2c(C(=O)C(=O)N3CCN(C(=O)c4ccccc4)CC3)c[nH]c12` to `Cc1csc(NC(=O)c2ccc(F)c3c(C(=O)C(=O)N4CCN(C(=O)c5ccccc5)CC4)c[nH]c23)n1`, the EC50 falls from 0.19 nM to 0.0058 nM (33-fold).

Going from `CCn1nccc1NC(=O)c1ccc(F)c2c(C(=O)C(=O)N3CCN(C(=O)c4ccccc4)CC3)c[nH]c12` to `Cc1cc(NC(=O)c2ccc(F)c3c(C(=O)C(=O)N4CCN(C(=O)c5ccccc5)CC4)c[nH]c23)on1`, the EC50 falls from 3.07 nM to 0.94 nM (3.3-fold). The second is the more potent here.

Going from `O=C(NC1=NCCS1)c1ccc(F)c2c(C(=O)C(=O)N3CCN(C(=O)c4ccccc4)CC3)c[nH]c12` to `O=C(NCc1cccs1)c1ccc(F)c2c(C(=O)C(=O)N3CCN(C(=O)c4ccccc4)CC3)c[nH]c12`, the EC50 rises from 0.02 nM to 1.06 nM (53-fold). The first is the more potent here.

First: O=C(Nc1nc2ccccc2s1)c1ccc(F)c2c(C(=O)C(=O)N3CCN(C(=O)c4ccccc4)CC3)c[nH]c12
Second: O=C(Nc1nc2ccccc2[nH]1)c1ccc(F)c2c(C(=O)C(=O)N3CCN(C(=O)c4ccccc4)CC3)c[nH]c12
The EC50 of the first is 8-fold higher: 0.32 nM for the first, 0.04 nM for the second.

Compared with `O=C(Nc1nc(-c2ccccc2)cs1)c1ccc(F)c2c(C(=O)C(=O)N3CCN(C(=O)c4ccccc4)CC3)c[nH]c12`, `O=C(NCc1ccco1)c1ccc(F)c2c(C(=O)C(=O)N3CCN(C(=O)c4ccccc4)CC3)c[nH]c12` is 6.2-fold higher in EC50: 0.21 nM for the first, 1.3 nM for the second.

System: not listed separately
Assay: Cytotoxicity against human HeLa cells expressing CD4 assessed as cell viability after 6 days by XTT assay
Assay type: cell-based
Details: not given

Compared with `O=C(Nc1nncs1)c1ccc(F)c2c(C(=O)C(=O)N3CCN(C(=O)c4ccccc4)CC3)c[nH]c12`, `Cc1csc(NC(=O)c2ccc(F)c3c(C(=O)C(=O)N4CCN(C(=O)c5ccccc5)CC4)c[nH]c23)n1` is 17-fold higher in CC50 at 144 h: 1740 nM for the first, 29000 nM for the second.

First: CCn1nccc1NC(=O)c1ccc(F)c2c(C(=O)C(=O)N3CCN(C(=O)c4ccccc4)CC3)c[nH]c12
Second: Cc1cc(NC(=O)c2ccc(F)c3c(C(=O)C(=O)N4CCN(C(=O)c5ccccc5)CC4)c[nH]c23)on1
The CC50 at 144 h of the first is lower: 166000 nM for the first, greater than 300000 nM for the second.

First: O=C(NC1=NCCS1)c1ccc(F)c2c(C(=O)C(=O)N3CCN(C(=O)c4ccccc4)CC3)c[nH]c12
Second: O=C(NCc1cccs1)c1ccc(F)c2c(C(=O)C(=O)N3CCN(C(=O)c4ccccc4)CC3)c[nH]c12
The CC50 at 144 h of the first is higher: greater than 300000 nM for the first, 44000 nM for the second.

Compared with `O=C(Nc1nc2ccccc2s1)c1ccc(F)c2c(C(=O)C(=O)N3CCN(C(=O)c4ccccc4)CC3)c[nH]c12`, `O=C(Nc1nc2ccccc2[nH]1)c1ccc(F)c2c(C(=O)C(=O)N3CCN(C(=O)c4ccccc4)CC3)c[nH]c12` is 8.8-fold lower in CC50 at 144 h: 81000 nM for the first, 9200 nM for the second.

First: O=C(Nc1nc(-c2ccccc2)cs1)c1ccc(F)c2c(C(=O)C(=O)N3CCN(C(=O)c4ccccc4)CC3)c[nH]c12
Second: O=C(NCc1ccco1)c1ccc(F)c2c(C(=O)C(=O)N3CCN(C(=O)c4ccccc4)CC3)c[nH]c12
The CC50 at 144 h of the first is higher: greater than 300000 nM for the first, 71000 nM for the second.
